The test concerns HBV. Conditions: Hepatitis B virus, HePAD38, 144 h, read-out: Cell Activity.

Structures can show the parent of a compound that is named as a salt.

For `O=C(Nc1ccc(F)c(Cl)c1)N1CCc2nc(NCC3(O)CC(F)(F)C3)sc2C1` [Example 9, N-(3-chloro-4-fluorophenyl)-2-{[(3,3-difluoro-1-hydroxycyclobutyl)methyl]amino}-4H,5H,6H,7H-[1,3]thiazolo[5,4-c]pyridine-5-carboxamide], the EC50 is under 1000 nM.
Take `O=C(Nc1ccc(F)c(Cl)c1)N1CCc2nc(N[C@H]3C[C@H](O)C3)sc2C1` [Example 2, N-(3-chloro-4-fluorophenyl)-2-{[(1r,3r)-3-hydroxycyclobutyl]amino}-4H,5H,6H,7H-[1,3]thiazolo[5,4-c]pyridine-5-carboxamide]: the EC50 was under 1000 nM.
Regarding `O=C(Nc1nc2c(s1)CN(C(=O)Nc1ccc(F)c(Cl)c1)CC2)C1CCOC1` (stereo not drawn) [Example 10, N-(3-chloro-4-fluorophenyl)-2-(oxolane-3-amido)-4H,5H,6H,7H-[1,3]thiazolo[5,4-c]pyridine-5-carboxamide], the EC50 is under 1000 nM.
As to `O=C(Nc1ccc(F)c(Cl)c1)N1CCc2nc(NCC3CCOC3)sc2C1` (stereo not drawn) [Example 5, N-(3-chloro-4-fluorophenyl)-2-{[(oxolan-3-yl)methyl]amino}-4H,5H,6H,7H-[1,3]thiazolo [5,4-c]pyridine-5-carboxamide], the EC50 is under 1000 nM.
As to `O=C(Nc1ccc(F)c(Cl)c1)N1CCc2nc(NS(=O)(=O)C3CC3)sc2C1` [Example 17, N-(3-chloro-4-fluorophenyl)-2-cyclopropanesulfonamido-4H,5H,6H,7H-[1,3]thiazolo[5,4-c]pyridine-5-carboxamide], the EC50 was 1000 to 10000 nM.
In the case of `CC1(S(=O)(=O)Nc2nc3c(s2)CN(C(=O)Nc2ccc(F)c(Cl)c2)CC3)CC1` [Example 18, N-(3-chloro-4-fluorophenyl)-2-(1-methylcyclopropanesulfonamido)-4H,5H,6H,7H-[1,3]thiazolo[5,4-c]pyridine-5-carboxamide] it was 1000 to 10000 nM.
Regarding `O=C(Nc1ccc(F)c(Cl)c1)N1CCc2nc(NC3CCOC3)sc2C1` (stereo not drawn) [Example 4, N-(3-chloro-4-fluorophenyl)-2-[(oxolan-3-yl)amino]-4H,5H,6H,7H-[1,3]thiazolo[5,4-c]pyridine-5-carboxamide], the EC50 was under 1000 nM.
`CN1CCC(C(=O)Nc2nc3c(s2)CN(C(=O)Nc2ccc(F)c(Cl)c2)CC3)CC1` [Example 8, N-{5-[(3-chloro-4-fluorophenyl)carbamoyl]-4H,5H,6H,7H-[1,3]thiazolo[5,4-c]pyridin-2-yl}-1-methylpiperidine-4-carboxamide formate]: the EC50 is under 1000 nM.
In the case of `O=C(Nc1ccc(F)c(Cl)c1)N1CCc2nc(NCC3(O)CCC3)sc2C1` [Example 6, N-(3-chloro-4-fluorophenyl)-2-{[(1-hydroxycyclobutyl)methyl]amino}-4H,5H,6H,7H-[1,3]thiazolo[5,4-c]pyridine-5-carboxamide] it was under 1000 nM; in that of `O=C(Nc1ccnc(C(F)F)c1)N1CCc2nc(N[C@H]3C[C@H](O)C3)sc2C1` [Example 16, N-[2-(difluoromethyl)pyridin-4-yl]-2-{[(1r,3r)-3-hydroxycyclobutyl]amino}-4H,5H,6H,7H-[1,3]thiazolo[5,4-c]pyridine-5-carboxamide], 1000 to 10000 nM.
For the compound `O=C(Nc1ccc(F)c(Cl)c1)N1CCc2nc(NC3(CO)CCC3)sc2C1` [Example 3, N-(3-chloro-4-fluorophenyl)-2-{[1-(hydroxymethyl)cyclobutyl]amino}-4H,5H,6H,7H-[1,3]thiazolo[5,4-c]pyridine-5-carboxamide], the EC50 is under 1000 nM.
As for `O=C(Nc1ccnc(C(F)F)c1)N1CCc2nc(NCC3(O)CCC3)sc2C1` [Example 19, N-[2-(difluoromethyl)pyridin-4-yl]-2-{[(1-hydroxycyclobutyl)methyl]amino}-4H,5H,6H,7H-[1,3]thiazolo[5,4-c]pyridine-5-carboxamide], the EC50 fell in the range of 1000 to 10000 nM.
As to `O=C(Nc1ccc(F)c(Cl)c1)N1CCc2nc(NC(=O)[C@H]3C[C@H](O)C3)sc2C1` [Example 20, N-(3-chloro-4-fluorophenyl)-2-[(1r,3r)-3-hydroxycyclobutaneamido]-4H,5H,6H,7H-[1,3]thiazolo[5,4-c]pyridine-5-carboxamide], the EC50 is under 1000 nM.
Consider `N#Cc1cc(NC(=O)N2CCc3nc(NCC4(O)CCC4)sc3C2)ccc1F` [Example 14, N-(3-cyano-4-fluorophenyl)-2-{[(1-hydroxycyclobutyl)methyl]amino}-4H,5H,6H,7H-[1,3]thiazolo[5,4-c]pyridine-5-carboxamide], for which the EC50 was under 1000 nM.
For `C[C@H]1Cc2nc(NC(=O)[C@H]3C[C@H](O)C3)sc2CN1C(=O)Nc1ccc(F)c(Cl)c1` [Example 21, (6S)-N-(3-chloro-4-fluorophenyl)-6-methyl-2-[(1r,3r)-3-hydroxycyclobutaneamido]-4H,5H,6H,7H-[1,3]thiazolo[5,4-c]pyridine-5-carboxamide], the EC50 was under 1000 nM.
As for `O=C(Nc1nc2c(s1)CN(C(=O)Nc1ccc(F)c(Cl)c1)CC2)C1CCOCC1` [Example 11, N-(3-chloro-4-fluorophenyl)-2-(oxane-4-amido)-4H,5H,6H,7H-[1,3]thiazolo[5,4-c]pyridine-5-carboxamide], the EC50 was under 1000 nM.
Regarding `O=C(Nc1ccc(F)c(Cl)c1)N1CCc2nc(N[C@H]3CC[C@@H](O)CC3)sc2C1` [Example 7, N-(3-chloro-4-fluorophenyl)-2-{[(1s,4s)-4-hydroxycyclohexyl]amino}-4H,5H,6H,7H-[1,3]thiazolo[5,4-c]pyridine-5-carboxamide], the EC50 was under 1000 nM.
Turning to `Nc1nc2c(s1)CN(C(=O)Nc1ccc(F)c(Cl)c1)CC2` [Example 1, 2-amino -N-(3-chloro-4-fluorophenyl)-4H,5H,6H,7H-[1,3] thiazolo[5,4-c]pyridine-5-carboxamide], the EC50 is under 1000 nM.
In the case of `Cc1cc(NC(=O)N2CCc3nc(NCC4(O)CCC4)sc3C2)ccc1F` [Example 13, N-(4-fluoro-3-methylphenyl)-2-{[(1-hydroxycyclobutyl)methyl]amino}-4H,5H,6H,7H-[1,3]thiazolo[5,4-c]pyridine-5-carboxamide] it was under 1000 nM; in that of `O=C(Nc1ccc(F)c(Cl)c1)N1CCc2nc(NCC3(O)CC3)sc2C1` [Example 12, N-(3-chloro-4-fluorophenyl)-2-{[(1-hydroxycyclopropyl)methyl]amino}-4H,5H,6H,7H-[1,3]thiazolo[5,4-c]pyridine-5-carboxamide], under 1000 nM.
Consider `O=C(Nc1nc2c(s1)CN(C(=O)Nc1ccc(F)c(Cl)c1)CC2)C1CCC(O)CC1` (stereo not drawn) [Example 15, N-(3-chloro-4-fluorophenyl)-2-(4-hydroxycyclohexaneamido)-4H,5H,6H,7H-[1,3]thiazolo[5,4-c]pyridine-5-carboxamide], for which the EC50 was under 1000 nM.

(Values after patent US20220009945A1, “NOVEL UREA 6,7-DIHYDRO-4H-THIAZOLE[5,4-C]PYRIDINES ACTIVE AGAINST THE HEPATITIS B VIRUS (HBV)” (AICURIS GMBH & CO. KG, priority 2018, published 2022).)
